Here are results for five molecules from paper PMC11866022, “Long-Chain Cyclic Arylguanidines as Multifunctional Serotonin Receptor Ligands with Antiproliferative Activity” (ACS Omega, 2025).

One data set concerns HEK293. Briefly: Viability of HEK293 cells. It is filed as cell-based. To be noted: Homo sapiens. An excerpt: PP 10 was characterized by a moderate 5-HT1A/5-HT5A/5-HT6/5-HT7 antagonist profile. […] Due to its potential function as an […], the viability of HEK293 cells treated with the test compounds was examined. No cytotoxic effects of the compounds were detected in the tested concentration range.

For data set [1], the target named is T1, 5-HT6 (Homo sapiens, UniProt P50406).
T1 construct: expressed in transfected cells; host or cells: HEK293
Kind of data set: Functional cAMP assay (LANCE Ultra), 5-HT6. It is filed as cell-based. As to conditions: for function at 5-HT6: in words; for Kb: Table 3, unit inferred, cAMP, antagonist mode, 5-CT. How it is done: (§1) Their functional activity was also evaluated by assessing their ability to inhibit agonist-induced cAMP production in HEK293 cells (Table 3). Extended radioisotope tests were aimed at detecting potential affinity for other aminergic receptors, whose role in cancer treatment may be important. Functions were tested for all receptors. The essence of functional tests results from the fact that serotonin stimulates tumor progression. Therefore, the ligand should have the potential to reduce its concentration, i.e., act as an antagonist.[39]
The detailed procedure is presented in previous publications.[53] The functional activity of the compounds was assessed using the LANCE Ultra cAMP detection kit (PerkinElmer). […] For other receptors (5-HT7R, 5-HT1AR, and 5-HT6R), 5-CT was used at 10, 100, and 1000 nM, respectively. Each compound was tested in triplicate across eight concentrations. The inhibitory constant (Kb) for each antagonist was calculated using the Cheng–Prusoff equation.
(cAMP levels reflect the balance of adenylyl cyclase and phosphodiesterase activity.)

The next data set concerns the target T2, D2 (Homo sapiens, UniProt P14416).
T2 construct: expressed in transfected cells; host or cells: HEK293
Kind of data set: Radioligand binding assay, D2 ([3H]-raclopride). To be noted: Table 3, unit inferred; 2.5 nM [3H]-raclopride. On the procedure: as §1
(§2) The detailed procedure is presented in previous publications.[53] Assays were performed by incubating for 1 h at 37 °C (room temperature for 5-HT1A) in 200 μL volumes on 96-well plates. The reaction was terminated by rapid filtration using Unifilter plates, and radioactivity on the filters was measured with a PerkinElmer Microbeta plate reader. Radioligands used were:
D2: 2.5 nM [^3H]-raclopride
(§3) Eight concentrations (10^–4 to 10^–11 M) were tested in triplicate for each compound. Inhibition constants (Ki) were calculated using the Cheng–Prusoff equation.[54] The results are expressed as the means of at least two independent experiments.

The target in a further data set is T3, 5-HT1A (Homo sapiens, UniProt P08908).
T3 construct: expressed in transfected cells; host or cells: HEK293
T3 sequence (P08908 1-422): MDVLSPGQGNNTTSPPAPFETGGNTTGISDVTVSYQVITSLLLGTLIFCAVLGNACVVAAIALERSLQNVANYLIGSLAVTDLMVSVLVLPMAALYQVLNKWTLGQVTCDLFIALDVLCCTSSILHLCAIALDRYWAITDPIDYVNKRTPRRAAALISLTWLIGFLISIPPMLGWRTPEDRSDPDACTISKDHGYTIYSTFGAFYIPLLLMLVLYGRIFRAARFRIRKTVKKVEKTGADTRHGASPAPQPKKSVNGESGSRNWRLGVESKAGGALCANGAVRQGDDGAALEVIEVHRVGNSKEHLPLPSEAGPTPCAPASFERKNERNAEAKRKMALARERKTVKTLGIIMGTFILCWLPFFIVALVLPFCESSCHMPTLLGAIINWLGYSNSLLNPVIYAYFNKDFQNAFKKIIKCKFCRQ
Briefly: Radioligand binding assay, 5-HT1A ([3H]-8-OHDPAT). To be noted: Table 3, unit inferred; 2.5 nM [3H]-8-OHDPAT. How it is done: as §1, §2, §3

For the next data set, the target named is 5-HT5A (Homo sapiens, UniProt P47898). Briefly: Radioligand binding assay, 5-HT5A ([3H]-LSD). As to conditions: Table 3, unit inferred; 3.5 nM [3H]-LSD. How it is done:
as §1, §2, §3

Data set [2] in a line: Metabolic stability in mouse liver microsomes. It is filed as in vitro ADME. As to conditions: MLMs; for main metabolic pathway / metabolic stability, % of remaining: 120 min. The source says:
Moving on to the next parameter, which is metabolism, we determined metabolic stability, using mouse liver microsomes (MLMs). […]
Main metabolic pathways are marked in red.
(In general: Liver microsomes are a subcellular fraction often used to study metabolism.)

In data set [3] the target is T1, 5-HT6. Kind of data set: Radioligand binding assay, 5-HT6 ([3H]-LSD). To be noted: HEK293 cell line with human 5-HT6R; 2 nM [3H]-LSD. On the procedure:
Ligand affinity for 5-HT6 receptors was subsequently tested with a radioligand binding assay, using the HEK293 cell line with human 5-HT6R, aiming to select compounds with the strongest affinity. Three compounds belonging to 2-naphthalenesulfonamide derivatives of 3,4-dihydroquinazolin-2-amines were obtained (Table 1).
as §2, §3

In another data set the test system is HSA and AGP (24:1). Kind of data set: TRANSILXL PPB plasma protein binding assay. To be noted: human, TRANSILXL PPB assay, HSA and AGP in a ratio 24:1.
For data set [4], the system named is normal human astrocytes (NHA). Kind of data set: Cytotoxicity (MTS), normal human astrocytes. As to conditions: for IC50: Homo sapiens, Astrocyte, 72 h, normal human astrocytes, MTS assay. It is filed as cell-based. On the procedure:
The chosen group of ligands was further examined for their ability to inhibit proliferation across multiple cancer cell lines related to the CNS system (1321N1, U87MG, LN-229, and U-251). These cell lines were characterized by different mutation profiles, the main one being the variable status of the p53 protein. In detail, U87MG cells have a wild-type p53 protein, while astrocytoma and the rest of GBM cells harbor mutated p53 protein. Additional assays were performed on MCF7 breast cancer and AsPC-1 pancreatic cancer cells. The wide range of tested lines was aimed at screening the anticancer potential of the tested compounds. The first represents one of the most common and the second one of the most aggressive cancers in the world. Comparing the activity of compounds on GBM cells to other types of cancer may reveal their selectivity and usefulness in targeted therapies. The cytotoxicity of the compounds on normal human astrocytes (NHA) and Feline catus astrocyte (PG-4) was determined. Tests on normal lines serve to verify the potential toxicity of the tested compounds on healthy cells. Due to the targeting of CNS tumors, astrocytes were selected as normal lines.
The detailed procedure is presented in previous publications.[53] Briefly, the study utilized various human cancer and normal cell lines, including LN-229 (glioblastoma), MCF7 (breast carcinoma), HepG2 (hepatoma), U-251 (glioblastoma), U87MG (glioblastoma), AsPC-1 (pancreatic adenocarcinoma), and NHA (normal human astrocytes). Cells were cultured in appropriate media, supplemented with FBS, antibiotics, and other supplements, and incubated at 37 °C with 5% CO2. Compounds were dissolved in DMSO, prepared at various concentrations (1–25 μM), and applied to the cells for 72 h. Cell viability was assessed using the MTS assay, and the inhibitory concentration (IC50) was calculated using GraphPad Prism 8.0. Each compound was tested in triplicate across multiple experiments.

Data set [5] in a line: Solubility in DMSO and 10% DMSO in PBS buffer. It is filed as physicochemical. To be noted: symbols not defined; for Solubility, 10% DMSO, 1 mM: 10% DMSO in PBS buffer. On the procedure: for 24 h. […] The IC50 were calculated as
Table S1. Solubility in DMSO and 10% DMSO in PBS buffer
3. Absorption – PAMPA permeability test
*Permeability coefficient.
**CFN = caffeine, well-permeable control

A short description of another data set: in vitro. To be noted: PAMPA. On the technique in general: The PAMPA barrier holds no transporters, so it reflects passive diffusion.

T2 sequence (P14416 whole entry): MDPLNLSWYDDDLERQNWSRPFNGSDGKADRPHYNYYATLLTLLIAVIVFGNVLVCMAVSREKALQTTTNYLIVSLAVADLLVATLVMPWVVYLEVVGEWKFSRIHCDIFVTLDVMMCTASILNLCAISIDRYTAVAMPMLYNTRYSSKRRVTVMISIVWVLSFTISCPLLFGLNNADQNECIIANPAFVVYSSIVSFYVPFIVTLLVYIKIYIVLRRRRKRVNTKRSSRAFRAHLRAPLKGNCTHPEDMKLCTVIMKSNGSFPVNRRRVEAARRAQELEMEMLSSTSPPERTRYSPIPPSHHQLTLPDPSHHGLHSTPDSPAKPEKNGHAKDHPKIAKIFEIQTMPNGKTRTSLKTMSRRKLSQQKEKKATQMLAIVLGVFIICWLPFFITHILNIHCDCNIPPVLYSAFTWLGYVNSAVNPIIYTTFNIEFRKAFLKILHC
T1 sequence (P50406 whole entry): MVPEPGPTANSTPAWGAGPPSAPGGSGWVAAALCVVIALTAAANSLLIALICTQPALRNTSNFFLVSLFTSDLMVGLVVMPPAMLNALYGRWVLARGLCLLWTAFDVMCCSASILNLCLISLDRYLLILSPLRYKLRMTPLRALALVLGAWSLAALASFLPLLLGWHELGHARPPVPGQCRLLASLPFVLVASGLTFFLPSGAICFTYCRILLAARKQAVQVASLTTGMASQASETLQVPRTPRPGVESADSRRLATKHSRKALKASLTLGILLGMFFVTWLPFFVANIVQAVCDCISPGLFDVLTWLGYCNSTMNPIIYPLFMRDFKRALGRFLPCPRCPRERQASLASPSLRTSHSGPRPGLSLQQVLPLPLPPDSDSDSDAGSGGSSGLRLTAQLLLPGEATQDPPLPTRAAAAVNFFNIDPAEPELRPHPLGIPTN
5-HT5A, sequence (P47898 whole entry, species assumed): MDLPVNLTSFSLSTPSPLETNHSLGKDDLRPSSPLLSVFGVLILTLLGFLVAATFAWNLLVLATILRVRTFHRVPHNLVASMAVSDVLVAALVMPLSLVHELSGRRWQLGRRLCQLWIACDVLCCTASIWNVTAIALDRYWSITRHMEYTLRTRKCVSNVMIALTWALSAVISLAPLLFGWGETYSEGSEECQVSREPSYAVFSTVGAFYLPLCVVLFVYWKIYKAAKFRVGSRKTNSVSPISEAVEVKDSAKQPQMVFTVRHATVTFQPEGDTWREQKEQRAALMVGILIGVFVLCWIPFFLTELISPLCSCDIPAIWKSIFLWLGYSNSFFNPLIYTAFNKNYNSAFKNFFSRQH

Regarding `O=S(=O)(c1cccc2ccccc12)N1CCN(CCNC2=Nc3ccccc3CN2)CC1` [PP 6, N-{2-[4-(Naphthalene-1-sulfonyl)piperazin-1-yl]ethyl}-3,4-dihydroquinazolin-2-amine], the IC50 with HEK293 is 51 µM. Besides, on 5-HT6 [1], the “function at 5-HT6” value was “agonist”. For the same molecule, the Ki on D2 stood at 7.43 µM; on 5-HT1A, 0.042 µM; on 5-HT5A it was 0.328 µM; on 5-HT6 [3], 0.109 ± 0.027 µM. For the same molecule, the main metabolic pathway entry in data set [2] was “double hydroxylation and double bond reduction”. Besides, the “metabolic stability, % of remaining” value in [2] turned out to be 72.76%.
`CC1NC(NCCCCCCNS(=O)(=O)c2cccc3ccccc23)=Nc2ccccc21` (stereo not drawn) [PP 10, N-{6-[(4-Methyl-3,4-dihydroquinazolin-2-yl)amino]hexyl}naphthalene-1-sulfonamide]: in the data set on HSA and AGP (24:1), the fraction unbound is 0.003. The same molecule yielded an IC50 in data set [4] of 12.6 ± 0.4 µM. Also, in the data set on HEK293, the IC50 is greater than 50 µM. Further, at 5-HT6 [1], the Kb was 0.036 µM and the “function at 5-HT6” value is “antagonist”. In addition, in [5], the “Solubility, 10% DMSO, 1 mM” value is recorded as “+ + +” and the “Solubility, 100% DMSO, 10 mM” value is on record as “+ + +”. On D2, this molecule came in with a Ki of 2.93 µM. This molecule yielded a Ki at 5-HT1A of 0.165 µM. This molecule gave a Ki at 5-HT5A of 0.059 µM. In “in vitro”, this molecule registered an apparent permeability coefficient (Papp) of 0.3 nm/s. In data set [2], the “number of potential metabolites identified” value was determined as 14; the main metabolic pathway entry is “double hydroxylation and double bond reduction or double hydroxylation and ring opening”; the “metabolic stability, % of remaining” value came out at 66.60%. Also, the Ki at 5-HT6 [3] was found to be 0.096 ± 0.022 µM.
As to `CC1NC(NCCCCCCNS(=O)(=O)c2c(Cl)ccc3ccccc23)=Nc2ccccc21` (stereo not drawn) [PP 13, 2-Chloro-N-{6-[(4-methyl-3,4-dihydroquinazolin-2-yl)amino]hexyl}naphthalene-1-sulfonamide], in the data set with HSA and AGP (24:1), the fraction unbound turned out to be 0.001 ± 3e-07. The IC50 in data set [4] was 4.2 ± 0.4 µM; in the data set on HEK293, greater than 50 µM. Also, the “function at 5-HT6” value at 5-HT6 [1] is reported as “agonist”. Further, the “Solubility, 10% DMSO, 1 mM” value in data set [5] was “+ + +”. Further, in [5], the “Solubility, 100% DMSO, 10 mM” value is reported as “+ + +”. The inhibition constant Ki at D2 was found to be 1.9 µM; on 5-HT1A it was 0.019 µM; at 5-HT6 [3], 0.069 ± 0.017 µM. The molecule further registered a Papp in the data set “in vitro” of 1.9 nm/s. Further, the “number of potential metabolites identified” value in data set [2] is 11. In [2], the main metabolic pathway entry was “ring opening and triple hydroxylation”. In data set [2], the “metabolic stability, % of remaining” value was found to be 52.60%.
Consider `O=S(=O)(NCCCCCCNc1ncc2ccccc2n1)c1cccc2ccccc12` [PP 15, N-{6-[(Quinazolin-2-yl)amino]hexyl}naphthalene-1-sulfonamide], for which, in the data set on HEK293, the IC50 is greater than 50 µM. This molecule showed a Kb on 5-HT6 [1] of 0.048 µM. In addition, at 5-HT6 [1], the “function at 5-HT6” value was “antagonist”. In addition, the “Solubility, 10% DMSO, 1 mM” value in data set [5] was “+ + -”. Besides, the “Solubility, 100% DMSO, 10 mM” value in data set [5] is “+ + -”. Moreover, the Ki is 71.8 µM at D2, 7.16 µM at 5-HT1A, 1.09 µM at 5-HT5A and 0.042 ± 0.011 µM on 5-HT6 [3]. In the data set “in vitro”, this molecule came in with a Papp of 1.3 nm/s. In addition, the main metabolic pathway result in data set [2] is listed as “hydroxylation”. Further, the “metabolic stability, % of remaining” value in data set [2] is on record as 48.07%.
`O=S1(=O)c2cccc3cccc(c23)N1CCCCCCNC1=Nc2ccccc2CN1` [PP 24, 3-{6-[(3,4-Dihydroquinazolin-2-yl)amino]hexyl}-2λ^6-thia-3-azatricyclo[6.3.1.0^4,^12]dodeca-1(11),4(12),5,7,9-pentaene-2,2-dione]: in the data set on HSA and AGP (24:1), the free fraction (fraction unbound) is 0.004. In data set [4], this molecule showed an IC50 of 7.9 ± 0.4 µM. Further, the selectivity index result in [4] (normal astrocytes versus cancer cell lines) is reported as “below 1”. Moreover, in data set [5], the “Solubility, 10% DMSO, 1 mM” value is given as “+ + +” and the “Solubility, 100% DMSO, 10 mM” value is given as “+ + +”. Further, the Papp in “in vitro” came to 7.3 nm/s. In data set [2], the main metabolic pathway entry is “hydroxylation” and the “metabolic stability, % of remaining” value amounted to 93.13%. This molecule gave a Ki at 5-HT6 [3] of 0.272 ± 0.068 µM.

In general, IC50 refers to the point on the concentration scale where inhibition reaches its midpoint. A lower IC50 goes with inhibition by little substance. As usually defined, the Ki is the dissociation constant of the complex between target and ligand, obtained from inhibition or displacement. One may read the fraction unbound as the share of the substance not bound to proteins or other matrix. One may read the Kb as the equilibrium dissociation constant of an antagonist, usually derived from a functional assay. High values mean lower antagonist affinity, low ones higher antagonist affinity. In general, Papp refers to the rate of passage across a membrane or cell layer, normalised by area and donor concentration.
